Test results from paper PMC10611510, “Teicoplanin associated gene tcaA inactivation increases persister cell formation in Staphylococcus aureus” (Frontiers in Microbiology, 2023).
In brackets after ≈: the same amount, converted by molar mass. Entries after “also recorded” stand apart in the source; their conditions may differ. Where two headings read alike, the source gives them in different places.

Experiments:
ΔtcaA [1] = test: MIC, two-fold broth microdilution (CLSI); type: cell-based; details: Staphylococcus aureus
S. aureus WT [2] = test: microbe, parasite or virus in culture; type: cell-based, Staphylococcus aureus
ΔtcaA [3] = test: Antibiotic susceptibility testing (inhibition zones); type: cell-based, Staphylococcus aureus; details: 100 fold MIC, 2 × 10^9 CFU/mL, 37°C, inhibition zones after 24–36 h; Supplementary Figure S1
ΔtcaA [4] = test: Fluorescence microscopy of persister cell resuscitation (GFP); details: 20-fold MIC for 48 h, washed, fresh TSB 2 h at 37°C; ΔtcaA compared to WT
Experimental: Fluorescence microscopy was used to observe the persister cell resuscitation ability of the whole population. […] The cells were harvested, washed with ddH2O, and resuspended in TSB media. The cells were grown for 2 h at 37°C and the S. aureus WT and ΔtcaA were observed under the fluorescence microscope.

dCas9-tcaB = test: Persister assay; details: dCas9-tcaB vs WT-dCas9 and WT; 10-fold MIC
Experimental: (§2) A persistence assay was adopted from our previous protocol ([Habib et al., 2020]). The cells were grown to OD600 = 0.40 in the TSB medium. The pSD1 containing dCas9-tcaA and dCas9-tcaB were induced with ATC 100 ng/mL for 1 h, the medium was removed, and fresh TSB and antibiotic were added whereas ΔtcaA cells were challenged with antibiotic at OD600 = 0.40. After 12 h, a 200 μL sample was taken and CFU counting was performed. Each antibiotic concentration was 10 fold of MIC, and S. aureus WT and S. aureus WT-dCas9 were used as controls.

S. aureus WT [5] = test: Growth curve analysis; type: cell-based, Staphylococcus aureus; details: OD600, 37°C
Experimental: (§1) The overnight culture was 100 times diluted in TSB medium and a 200 μL was inoculated into a 96-well microtiter plate. The plates were incubated at 37°C with shaking at 200 rpm. At different time intervals (1–18 and 24 h), OD600 was measured using a microplate reader (Thermo Fisher, Waltham, MA, USA).

C-ΔtcaA = test: Growth curve analysis; type: cell-based, Staphylococcus aureus; details: OD600, 37°C
Experimental: as §1

ΔtcaA [6] = test: Growth curve analysis; type: cell-based, Staphylococcus aureus; details: OD600, 37°C
Experimental: as §1

MRSA MW2 = test: Growth curve analysis; type: cell-based, Staphylococcus aureus; details: OD600, 37°C
Experimental: as §1

resistant isolates = details: ref Wang Y. et al., 2017; cited from earlier work
From the text: Glycopeptide resistance in MRSA is a global problem and vancomycin- and teicoplanin-resistant strains are of major clinical relevance. Several studies have reported the emergence of teicoplanin and vancomycin resistance in S. aureus ([Wang Y. et al., 2017]; [Szymanek-Majchrzak et al., 2018]; [Wu et al., 2021]). Typically, teicoplanin and vancomycin bind to D-alanine-D-alanine subunits of the murein monomer and cross resistance could develop between teicoplanin and vancomycin ([Bakthavatchalam et al., 2019]). The cell wall thickness also contributed to the development of vancomycin and teicopla ...

[7] = system: penicillin binding protein-2 (pbp2) ectopic expression; details: ref Sieradzki et al., 1998, cited from earlier work; for MIC after the increase: end value of the increase associated with pbp2 ectopic expression; for MIC before the increase: start value of the increase associated with pbp2 ectopic expression
From the text: Staphylococcus aureus has two major types of resistant strains, namely, methicillin-resistant S. aureus (MRSA) and vancomycin-resistant S. aureus (VRSA). MRSA is considered the major cause of hospital and community-acquired infections ([Aqib and Rodriguez-Morales, 2021]) and is largely treated with glycopeptides. However, the emergence of teicoplanin resistance, vancomycin-intermediate S. aureus (VISA), and VRSA has made the clinical treatment unsuccessful and increased death rates across the world ([Howden et al., 2010]). S. aureus resistant to glycopeptides are a serious threat to public hea ...

ΔtcaA [8] = system: ΔtcaA
Experimental: as §2

dCas9-tcaA = test: Persister assay; details: dCas9-tcaA vs WT-dCas9, 10-fold MIC, CFU counting; for Surviving fraction of cells (persisters), fold relative to control: after 12 h, triplicates; for Increase in persister cells, fold relative to control: after 48 h
Experimental: as §2

ΔtcaA [9] = test: Persister assay
Experimental: as §2

[10] = C-ΔtcaA complementary strain, 1 mg/L
[11] = ΔtcaA complementary strain, 2 mg/L

Row | Compound | MIC (ΔtcaA [1]) | Susceptibility of the isolate (in words) (S. aureus WT [2]) | MIC (S. aureus WT [2]; Staphylococcus aureus) | Susceptibility of ΔtcaA (in words) (ΔtcaA [3]) | GFP-expressing cells after antibiotic removal (resuscitation) (ΔtcaA [4]) | Persister cell formation relative to controls (in words) (dCas9-tcaB) | Growth in TSB with antibiotic (in words) (S. aureus WT [5]; 1 mg/L) | Growth in TSB with antibiotic (in words) (S. aureus WT [5]; 2 mg/L) | Growth in TSB with antibiotic (in words) (C-ΔtcaA; [10]) | Growth in TSB with antibiotic (in words) (C-ΔtcaA; [11]) | Growth in TSB with antibiotic (in words) (ΔtcaA [6]; 1 mg/L) | Growth in TSB with antibiotic (in words) (ΔtcaA [6]; 2 mg/L) | Growth in TSB with antibiotic (in words) (MRSA MW2; 1 mg/L) | Growth in TSB with antibiotic (in words) (MRSA MW2; 2 mg/L) | MIC (resistant isolates) | MIC after the increase [7] | MIC before the increase [7] | Surviving fraction of cells (persisters), fold relative to control (dCas9-tcaA) | Increase in persister cells, fold relative to control (dCas9-tcaA) | also measured
1 | COc1cccc(OC)c1C(=O)N[C@@H]1C(=O)N2[C@@H]1SC(C)(C)[C@@H]2C(=O)O [Methicillin] | ≥ 256 µg/mL | resistant | > 512 µg/mL |  |  |  |  |  |  |  |  |  |  |  |  |  |  |  |  | 
2 | CN[C@H](CC(C)C)C(=O)N[C@H]1C(=O)N[C@@H](CC(N)=O)C(=O)N[C@H]2C(=O)N[C@H]3C(=O)N[C@H](C(=O)N[C@H](C(=O)O)c4cc(O)cc(O)c4-c4cc3ccc4O)[C@H](O)c3ccc(c(Cl)c3)Oc3cc2cc(c3O[C@@H]2O[C@H](CO)[C@@H](O)[C@H](O)[C@H]2O[C@H]2C[C@](C)(N)[C@H](O)[C@H](C)O2)Oc2ccc(cc2Cl)[C@H]1O [Vancomycin] |  | resistant | 10 µg/mL (≈ 6.9 µM) | resistance; also recorded: susceptibility was decreased | high number of cells expressing GFP in ΔtcaA cells compared to WT | did not induce persister cell formation | fast and steady growth | slow growth | fast and steady growth | slow growth | fast and steady growth | slow growth | slow growth rates | did not show any growth | 2 µg/mL (≈ 1.38 µM) | 2 µg/mL (≈ 1.38 µM) | 1 µg/mL (≈ 0.69 µM) | 15 fold | 10 fold | Increase in persister cells, fold (tcaA persistence assay, summary) (ΔtcaA [8]): 10–11 fold; Increase in persister cells, fold relative to control (ΔtcaA [8]): 11 fold
3 | CC[C@H]1OC(=O)[C@H](C)[C@@H](O[C@H]2C[C@@](C)(OC)[C@@H](O)[C@H](C)O2)[C@H](C)[C@@H](O[C@@H]2O[C@H](C)C[C@H](N(C)C)[C@H]2O)[C@](C)(O)C[C@@H](C)CN(C)[C@H](C)[C@@H](O)[C@]1(C)O [Azithromycin] | ≤ 8 µg/mL | sensitive | ≤ 8 µg/mL | did not affect |  |  |  |  |  |  |  |  |  |  |  |  |  |  |  | 
4 | Teicoplanin |  | resistant |  | resistance; also recorded: susceptibility was decreased | high number of cells expressing GFP in ΔtcaA cells compared to WT | did not induce persister cell formation | fast and steady growth | slow growth | fast and steady growth | slow growth | fast and steady growth | slow growth | slow growth rates | did not show any growth | 16 µg/mL | 8 µg/mL | 2 µg/mL | 17 fold | 13 fold | Increase in persister cells, fold (tcaA persistence assay, summary) (ΔtcaA [9]; summary over dCas9-tcaA and ΔtcaA, discussion): 13–14 fold; Surviving fraction of cells (persisters), fold relative to control (ΔtcaA [9]; ΔtcaA vs WT, 10-fold MIC, after 12 h, CFU counting, triplicates): 18 fold; Increase in persister cells, fold relative to control (ΔtcaA [9]; ΔtcaA vs WT, 10-fold MIC, after 48 h, CFU counting): 14 fold; MIC (S. aureus WT [2]): 16 µg/mL
